Experimental data: ChEMBL document CHEMBL1201862, “PubChem BioAssay data set” (2004)
Where “and” joins values, the source holds several entries; their conditions need not be identical. Identical values can stand only once.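 Where inhibition never reached the appropriate level, the endpoint shown equals the highest concentration tested. Otherwise, values were interpolated linearly from a five-concentration, 48-hour dose response in 96-well plates. GI50 is the concentration that inhibits growth by half.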 Calls of active or inactive are those of the source. Cut-off read from the data, not from the text of the source: active = GI50 up to about 1.1 µM and inactive = higher.

What was measured:
Experiment in all cases: DTP human tumour cell line panel, 48 h
SR = system: SR
CCRF-CEM = system: CCRF-CEM
MDA-MB-231 = system: MDA-MB-231
ACHN = system: ACHN
OVCAR-5 = system: OVCAR-5
OVCAR-4 = system: OVCAR-4
U-251 = system: U-251
MDA-N = system: MDA-N
HT-29 = system: HT-29
SNB-19 = system: SNB-19
RPMI-8226 = system: RPMI-8226
PC-3 = system: PC-3
COLO 205 = system: COLO 205
UO-31 = system: UO-31
SF-295 = system: SF-295
K562 = system: K562
MCF7 = system: MCF7
CAKI-1 = system: CAKI-1
MOLT-4 = system: MOLT-4
SF-268 = system: SF-268

Compound	GI50 (SR)	GI50 (CCRF-CEM)	GI50 (MDA-MB-231)	GI50 (ACHN)	GI50 (OVCAR-5)	GI50 (OVCAR-4)	GI50 (U-251)	GI50 (MDA-N)	GI50 (HT-29)	GI50 (SNB-19)	GI50 (RPMI-8226)	GI50 (PC-3)	GI50 (COLO 205)	GI50 (UO-31)	GI50 (SF-295)	GI50 (K562)	GI50 (MCF7)	GI50 (CAKI-1)	GI50 (MOLT-4)	GI50 (SF-268)
Cc1c(Cl)cccc1NC(=O)CC1Sc2ccccc2NC1=O (stereo not drawn)	6.12 µM (inactive)	68.4 µM (inactive) and 46.2 µM (inactive)	14 µM (inactive)	23.7 µM (inactive) and 23.5 µM (inactive)	48.9 µM (inactive) and 51.8 µM (inactive)	22 µM (inactive) and 16.5 µM (inactive)	14.7 µM (inactive) and 17.3 µM (inactive)	2.71 µM (inactive)	13.9 µM (inactive)	19.4 µM (inactive) and 20.1 µM (inactive)	23.9 µM (inactive) and 32.4 µM (inactive)	27.4 µM (inactive)	46.3 µM (inactive) and 31.4 µM (inactive)	19.4 µM (inactive) and 19.6 µM (inactive)	37.5 µM (inactive) and 21.9 µM (inactive)	6.59 µM (inactive) and 6.53 µM (inactive)	11 µM (inactive)	36.3 µM (inactive) and 42.2 µM (inactive)	24.4 µM (inactive) and 26.5 µM (inactive)	–
C=CC(=O)N1C/C(=C\c2ccccc2)C(=O)/C(=C/c2ccccc2)C1	0.476 µM (active)	0.351 µM (active)	2 µM (inactive)	1.83 µM (inactive)	2.49 µM (inactive)	2.16 µM (inactive)	0.877 µM (active)	0.318 µM (active)	0.467 µM (active)	2.54 µM (inactive)	0.0462 µM (active)	1.69 µM (inactive)	1.83 µM (inactive)	1.77 µM (inactive)	2.1 µM (inactive)	0.265 µM (active)	0.5 µM (active)	2.83 µM (inactive)	0.458 µM (active)	1.97 µM (inactive)
CC(=O)OCCN1c2ccccc2Sc2cnccc21	> 10 µM (inactive)	> 10 µM (inactive)	> 10 µM (inactive)	> 10 µM (inactive)	> 10 µM (inactive)	> 10 µM (inactive)	> 10 µM (inactive)	> 10 µM (inactive)	> 10 µM (inactive)	> 10 µM (inactive)	> 10 µM (inactive)	> 10 µM (inactive)	> 10 µM (inactive)	> 10 µM (inactive)	> 10 µM (inactive)	> 10 µM (inactive)	> 10 µM (inactive)	> 10 µM (inactive)	> 10 µM (inactive)	> 10 µM (inactive)
NCCCc1nonc1C(=O)O	> 100 µM (inactive)	> 100 µM (inactive)	> 100 µM (inactive)	> 100 µM (inactive)	> 100 µM (inactive)	> 100 µM (inactive)	> 100 µM (inactive)	> 100 µM (inactive)	> 100 µM (inactive)	> 100 µM (inactive)	> 100 µM (inactive)	> 100 µM (inactive)	> 100 µM (inactive)	> 100 µM (inactive)	> 100 µM (inactive)	> 100 µM (inactive)	> 100 µM (inactive)	> 100 µM (inactive)	> 100 µM (inactive)	> 100 µM (inactive)
COC(=O)CCC1(O)C=CC(=O)C=C1	25 µM (inactive)	43.4 µM (inactive)	> 100 µM (inactive)	51.6 µM (inactive)	> 100 µM (inactive)	65.8 µM (inactive)	21.1 µM (inactive)	63.4 µM (inactive)	36.7 µM (inactive)	37.8 µM (inactive)	31.7 µM (inactive)	> 100 µM (inactive)	17.6 µM (inactive)	55 µM (inactive)	> 100 µM (inactive)	38.9 µM (inactive)	38.3 µM (inactive)	16.6 µM (inactive)	37.7 µM (inactive)	29.6 µM (inactive)
CC1=NN(c2nc(N)nc(CBr)n2)C(C)(C)C1	2.88 µM (inactive)	0.229 µM (active)	7.18 µM (inactive)	3.56 µM (inactive)	3.71 µM (inactive)	7.4 µM (inactive)	6.76 µM (inactive)	11.5 µM (inactive)	4.98 µM (inactive)	16.7 µM (inactive)	1.13 µM (inactive)	5.33 µM (inactive)	3.03 µM (inactive)	0.384 µM (active)	12.1 µM (inactive)	2.02 µM (inactive)	2.47 µM (inactive)	1.47 µM (inactive)	1.61 µM (inactive)	6.01 µM (inactive)
COc1ccc2c(c1)-c1nc(=S)n(CCCN(C)C)c3ccc([N+](=O)[O-])c(c13)N2	0.506 µM (active)	0.205 µM (active)	0.687 µM (active)	0.296 µM (active)	0.611 µM (active)	1.13 µM (inactive)	0.592 µM (active)	0.815 µM (active)	0.261 µM (active)	0.8 µM (active)	0.693 µM (active)	0.771 µM (active)	0.656 µM (active)	0.49 µM (active)	1.81 µM (inactive)	0.454 µM (active)	0.437 µM (active)	1.68 µM (inactive)	0.141 µM (active)	0.617 µM (active)
CC(C)(CN)SCc1ccccc1	> 100 µM (inactive)	> 100 µM (inactive)	> 100 µM (inactive)	> 100 µM (inactive)	> 100 µM (inactive)	> 100 µM (inactive)	> 100 µM (inactive)	> 100 µM (inactive)	> 100 µM (inactive)	> 100 µM (inactive)	> 100 µM (inactive)	> 100 µM (inactive)	> 100 µM (inactive)	> 100 µM (inactive)	> 100 µM (inactive)	> 100 µM (inactive)	> 100 µM (inactive)	> 100 µM (inactive)	> 100 µM (inactive)	> 100 µM (inactive)
Cc1ccc(C(=O)N/N=C(\N=N\c2ccccc2)c2ccc(N(C)C)cc2)cc1	35.5 µM (inactive)	> 100 µM (inactive)	> 100 µM (inactive)	–	> 100 µM (inactive)	16.3 µM (inactive)	> 100 µM (inactive)	29.4 µM (inactive)	> 100 µM (inactive)	80.4 µM (inactive)	> 100 µM (inactive)	> 100 µM (inactive)	57.3 µM (inactive)	> 100 µM (inactive)	> 100 µM (inactive)	52.2 µM (inactive)	48.8 µM (inactive)	44.5 µM (inactive)	> 100 µM (inactive)	50.7 µM (inactive)
Nc1ncnc2c1ncn2CC(O)C(=O)O (stereo not drawn)	> 100 µM (inactive)	> 100 µM (inactive)	> 100 µM (inactive)	> 100 µM (inactive)	> 100 µM (inactive)	> 100 µM (inactive)	> 100 µM (inactive)	> 100 µM (inactive)	> 100 µM (inactive)	> 100 µM (inactive)	> 100 µM (inactive)	> 100 µM (inactive)	> 100 µM (inactive)	> 100 µM (inactive)	> 100 µM (inactive)	> 100 µM (inactive)	> 100 µM (inactive)	> 100 µM (inactive)	> 100 µM (inactive)	> 100 µM (inactive)
COc1cccc(C2CC(C)(N3CCCC3)Oc3cc4c(cc32)OCO4)c1O (stereo not drawn)	3.81 µM (inactive)	15.2 µM (inactive)	19.1 µM (inactive)	36.7 µM (inactive)	29.7 µM (inactive)	48.1 µM (inactive)	25.1 µM (inactive)	2.54 µM (inactive)	19.1 µM (inactive)	37.6 µM (inactive)	21.3 µM (inactive)	10.6 µM (inactive)	19.1 µM (inactive)	32.5 µM (inactive)	22.1 µM (inactive)	9.31 µM (inactive)	39.1 µM (inactive)	31.7 µM (inactive)	21.8 µM (inactive)	30.3 µM (inactive)
Cc1n[nH]c(=O)n1C1CCCC1	> 100 µM (inactive)	> 100 µM (inactive)	> 100 µM (inactive)	> 100 µM (inactive)	> 100 µM (inactive)	> 100 µM (inactive)	> 100 µM (inactive)	> 100 µM (inactive)	> 100 µM (inactive)	> 100 µM (inactive)	> 100 µM (inactive)	> 100 µM (inactive)	> 100 µM (inactive)	> 100 µM (inactive)	> 100 µM (inactive)	> 100 µM (inactive)	> 100 µM (inactive)	> 100 µM (inactive)	> 100 µM (inactive)	> 100 µM (inactive)
O=c1cc(C(F)(F)F)c2cc3c(cc2o1)NCCC3	> 100 µM (inactive)	> 100 µM (inactive)	> 100 µM (inactive)	> 100 µM (inactive)	> 100 µM (inactive)	70.6 µM (inactive)	23.1 µM (inactive)	> 100 µM (inactive)	> 100 µM (inactive)	23 µM (inactive)	> 100 µM (inactive)	85.3 µM (inactive)	> 100 µM (inactive)	61.1 µM (inactive)	35 µM (inactive)	> 100 µM (inactive)	3.16 µM (inactive)	86.9 µM (inactive)	> 100 µM (inactive)	24.5 µM (inactive)
CC(=O)Oc1ccc(/C=C/C(=O)NCCOC(=O)/C=C/c2ccc(OC(C)=O)c(OC(C)=O)c2)cc1OC(C)=O	14.1 µM (inactive)	0.571 µM (active)	45.2 µM (inactive)	26.2 µM (inactive)	23.8 µM (inactive)	18.4 µM (inactive)	28.4 µM (inactive)	22.5 µM (inactive)	25.6 µM (inactive)	21.2 µM (inactive)	26.2 µM (inactive)	34 µM (inactive)	42.5 µM (inactive)	22.9 µM (inactive)	23.7 µM (inactive)	32.4 µM (inactive)	29.5 µM (inactive)	32.8 µM (inactive)	4.8 µM (inactive)	20 µM (inactive)
